A word on the Ki: it is the equilibrium dissociation constant of an inhibitor or competing ligand from its target. A low value points to tighter binding. Broadly, the EC50 is the concentration at which the effect is half-maximal. A lower EC50 goes with a more potent agent.

Data on eleven compounds can be found in patent publication US9862674B2, “Therapeutic compounds and methods of use” (University of Florida Research Foundation, Inc., priority 2007, dated 2018).

Assay [1] addresses T1, 5HT2C receptors (Homo sapiens, UniProt P28335).
T1 sequence (P28335 33-458): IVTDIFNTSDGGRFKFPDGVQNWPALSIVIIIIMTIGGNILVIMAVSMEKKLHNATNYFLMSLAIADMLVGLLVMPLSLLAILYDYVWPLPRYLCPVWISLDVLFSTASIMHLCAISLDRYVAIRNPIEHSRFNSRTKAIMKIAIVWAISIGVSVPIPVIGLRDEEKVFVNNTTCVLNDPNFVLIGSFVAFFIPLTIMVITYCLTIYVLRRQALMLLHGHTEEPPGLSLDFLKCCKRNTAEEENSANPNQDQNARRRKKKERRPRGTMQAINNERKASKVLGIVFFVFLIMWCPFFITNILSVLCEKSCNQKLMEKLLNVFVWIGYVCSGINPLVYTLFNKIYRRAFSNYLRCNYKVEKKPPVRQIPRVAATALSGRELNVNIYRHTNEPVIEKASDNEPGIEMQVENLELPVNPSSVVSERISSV
The assay can be described thus: Radioreceptor saturation and competition binding, [3H]-mesulergine labeled 5-HT2C receptor membranes from transfected CHO-K1 cells.

Assay [2] concerns cocaine self-administration. The settings on record: rat; cited from earlier work.
In assay [3] the target is T2, 5HT2A receptor (Homo sapiens, UniProt P28223). In words: PLC/[3H]-IP formation in CHO cells transiently transfected with human 5HT2A cDNA (agonist and antagonist mode). It counts as cell-based. Set-up: host or cells: CHO-K1 (ATCC CCL-61), transient transfection.
T2 sequence (P28223 whole entry): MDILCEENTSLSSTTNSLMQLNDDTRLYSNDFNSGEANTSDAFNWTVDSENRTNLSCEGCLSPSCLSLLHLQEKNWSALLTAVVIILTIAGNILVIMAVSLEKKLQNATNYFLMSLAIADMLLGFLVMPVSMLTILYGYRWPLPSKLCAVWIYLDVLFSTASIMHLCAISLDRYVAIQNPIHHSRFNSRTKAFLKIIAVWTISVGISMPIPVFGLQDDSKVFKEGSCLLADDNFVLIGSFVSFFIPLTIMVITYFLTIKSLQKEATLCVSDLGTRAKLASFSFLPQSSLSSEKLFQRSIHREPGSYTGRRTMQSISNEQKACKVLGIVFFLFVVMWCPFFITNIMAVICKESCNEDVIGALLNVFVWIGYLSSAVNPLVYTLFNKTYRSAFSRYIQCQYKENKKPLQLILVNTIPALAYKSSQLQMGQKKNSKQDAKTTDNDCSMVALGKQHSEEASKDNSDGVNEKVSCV
The test system of assay [4] is 5HT2C receptors over 5HT2A receptors. The settings on record: in vitro; cited from earlier work.
Assay [5] has as its target T2, 5HT2A receptor. The assay can be described thus: PDSP (2005) 5HT2A receptor-mediated PLC/[3H]-IP formation. Type of assay: cell-based. The note with it: concentrations to 10 μM; not shown.
The target in assay [6] is T1, 5HT2C receptors. In words: PDSP (2005) functional activity of APTs at 5HT2C receptors. The note with it: preliminary data. It counts as cell-based.
For assay [7], the target named is T2, 5HT2A receptor. In words: Radioreceptor saturation and competition binding, [3H]-ketanserin labeled 5-HT2A receptor membranes from transfected CHO-K1 cells. Set-up: host or cells: CHO-K1 (ATCC CCL-61), transient transfection. The note with it: saturation binding.

`CN(C)C1CCc2c(cccc2-c2cccc(Cl)c2)C1` (stereo not shown) [35 (Cl-5APT)] gave a Ki in assay [1] of approximately 220 nM.

As for `Cc1cc2c(cc1Cl)N(C(=O)Nc1ccc(Oc3cccnc3C)nc1)CC2` [SB242084], the “effect on rate of cocaine self-administration” value in assay [2] is reported as “increases the rate of cocaine self-administration dose-dependently”.

On to `CN(C)C1CCc2cc(-c3ccccc3)ccc2C1` (stereo not shown) [36 (6APT)], for which the inhibition constant (Ki) in assay [1] worked out at 1800 nM.

`NCCc1c[nH]c2ccc(O)cc12` [5-HT, 5-hydroxytryptamine]: the “5HT2A PLC/[3H]-IP formation stimulated by agonist” value in assay [3] (5-HT 1.0 μM) is approximately 250 % basal control. In addition, the “maximal PLC/[3H]-IP formation, 5HT2A” value in assay [3] (at Emax concentration) was approximately 300 % basal control activity.

In the case of `CN(C)C1CCc2cc(-c3cccc(Br)c3)ccc2C1` (stereo not shown) [40 (Br-6APT)], in assay [1], the Ki stood at 540 ± 10 nM.

In the case of `CN(C)C1CCc2c(cccc2-c2cccc(C(F)(F)F)c2)C1` (stereo not shown) [33 (CF3^−5APT)], in assay [1], the Ki is approximately 190 nM.

Compound `CN(C)C1CCc2cc(-c3cccc(C(F)(F)F)c3)ccc2C1` (stereo not shown) [37 (CF3^−6APT)] had a Ki in assay [1] of approximately 1500 nM.

Consider `C[C@H]1CNCCc2ccc(Cl)cc21` [lorcaserin], for which the “selectivity for activation of 5HT2C receptors over 5HT2A receptors” value in assay [4] is recorded as 15 fold.

In the case of `CN(C)C1CCc2c(cccc2-c2ccccc2)C1` (stereo not shown) [32 (5APT)], the “activation of 5HT2A receptor-mediated PLC/[3H]-IP formation (PDSP)” value in assay [5] was “did not activate”. Moreover, in assay [6], the EC50 is approximately 80 nM, the “Emax at 5HT2C (PDSP)” value is given as approximately 75 % 5HT value and the “functional character at 5HT2C (PDSP)” value was “moderate potency partial agonist”. For the same compound, the Ki in assay [1] amounted to 320 ± 11 nM.

Regarding `[3H]C([3H])(N1CCC(C(=O)c2ccc(F)cc2)CC1)C([3H])([3H])n1c(=O)[nH]c2ccccc2c1=O` [[^3H]-Ketanserin], the “Bmax of 5HT2A receptors labeled” value in assay [7] was 1.73±0.11 pmol/mg protein.

As for `COc1cccc([C@H](O)C2CCN(CCc3ccc(F)cc3)CC2)c1OC` [M100907], in assay [2], the “effect on rate of cocaine self-administration” value is recorded as “does not alter responding rate”.
